Source: US20120184613A1, “SULFUR-CONTAINING COMPOUND AND USE THEREOF” (SUMITOMO CHEMICAL COMPANY, LIMITED, priority 2008, published 2012)

System: Blattalla germanica
Assay: Test Example 3: filter paper with sucrose bait, death rate of Blattalla germanica
Assay type: in vivo
Settings: 500 ppm test solution, 0.7 ml on filter paper; 2 male imagoes; after 6 days
Description: A formulation of any one of the present compounds (3) and (4) obtained according to Formulation Example 5 was diluted with water to prepare a test solution having 500 ppm of the active ingredient.
A filter paper having a diameter of 5.5 cm was spread on the bottom of a polyethylene cup having a diameter of 5.5 cm and 0.7 ml of the test solution was added dropwise onto the filter paper. As a bait, 30 mg of sucrose was uniformly placed on the filter paper. Into the polyethylene cup, 2 male imagoes of Blattalla germanica were released and the cup was sealed with a lid. After 6 days, the number of surviving or dead Blattalla germanica was counted and the death rate of the pest was calculated.

| SMILES | pest death rate |
| --- | --- |
| CC(C)OCCS(=O)(=O)C(C#N)CCC(F)(F)C(F)(F)F (centres unmarked) [(3)] | 100% |
| COC(C)(C)CS(=O)(=O)C(C#N)CCC(F)(F)C(F)(F)F (centres unmarked) [(4)] | 100% |
